According to PMC3648344 (BMC Structural Biology, 2013):

Molecular target: T1, ypMnmC (Yersinia pestis, UniProt Q8ZD36)
T1 construct: gene mnmC
Conditions: selenomethionyl protein; co-purified FAD, none added; MnmC1 domain site; also in 3SGL with SAM

T1 sequence (Q8ZD36 whole entry, looked up): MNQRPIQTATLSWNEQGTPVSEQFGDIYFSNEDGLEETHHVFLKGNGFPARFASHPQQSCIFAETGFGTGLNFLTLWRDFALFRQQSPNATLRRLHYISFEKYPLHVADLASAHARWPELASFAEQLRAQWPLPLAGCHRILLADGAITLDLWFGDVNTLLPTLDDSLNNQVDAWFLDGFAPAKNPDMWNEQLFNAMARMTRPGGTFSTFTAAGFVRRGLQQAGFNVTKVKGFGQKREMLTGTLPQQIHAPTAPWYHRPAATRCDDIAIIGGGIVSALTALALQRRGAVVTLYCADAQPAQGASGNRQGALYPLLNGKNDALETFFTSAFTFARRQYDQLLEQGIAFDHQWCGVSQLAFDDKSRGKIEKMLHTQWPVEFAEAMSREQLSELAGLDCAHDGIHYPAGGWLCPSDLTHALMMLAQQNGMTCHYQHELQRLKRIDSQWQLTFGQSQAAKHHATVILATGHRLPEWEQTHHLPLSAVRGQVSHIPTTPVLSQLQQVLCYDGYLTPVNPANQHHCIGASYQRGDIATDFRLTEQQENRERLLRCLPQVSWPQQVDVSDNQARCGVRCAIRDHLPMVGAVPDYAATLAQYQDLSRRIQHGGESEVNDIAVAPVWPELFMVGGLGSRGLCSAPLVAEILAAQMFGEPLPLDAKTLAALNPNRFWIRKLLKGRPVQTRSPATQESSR

Cc1cc2nc3c(=O)[nH]c(=O)nc-3n(C[C@H](O)[C@H](O)[C@H](O)COP(=O)(O)OP(=O)(O)OC[C@H]3O[C@@H](n4cnc5c(N)ncnc54)[C@H](O)[C@@H]3O)c2cc1C [FAD] was tested, and the “X-ray crystal structure, 2.30 Å” value was “All three MnmC structures unambiguously exhibited bound FAD (Figure 4A)”.
